Data set [1] can be described thus: Renal clearance in healthy human subjects (6 subjects) at 2.6 mg/kg, iv by HPLC method. It is filed as ADME, organism-based, Kidney. The settings on record: in vivo.
Data set [2] in a line: Drug dissolution in 0.1N HCl measured during 15 mins. The note with it: buffer, 0.25 h. It is filed as physicochemical.
A short description of data set [3]: Tmax in human. The settings on record: in vivo. It is filed as ADME, organism-based.
Data set [4] is described as follows: Drug dissolution in aqueous medium after 90 mins. It is filed as physicochemical. The note with it: buffer, 1.5 h.
Data set [5] has as its system Homo sapiens. As to the kind of experiment: Disposition rate constant at distribution phase in healthy human subjects (6 subjects) at 2.6 mg/kg, iv by HPLC method. It is filed as ADME, organism-based. The note with it: in vivo.
Data set [6] in a line: Total body clearance in healthy human subjects (6 subjects) at 2.6 mg/kg, iv by HPLC method. The settings on record: in vivo. It is filed as ADME, organism-based.
Data set [7] in a line: Terminal half life in healthy human subjects (6 subjects) at 2.9 mg/kg, po by HPLC method. It is filed as ADME, organism-based. The note with it: in vivo, read-out: beta t1/2 (converted).
A short description of data set [8]: Drug dissolution in acid medium after 90 mins. It is filed as physicochemical. The settings on record: 1.5 h.
A short description of data set [9]: Elimination half life in healthy human subjects (6 subjects) at 2.9 mg/kg, po measured during oral dose (period-3) by HPLC method. The note with it: in vivo, read-out: beta t1/2 (converted). It is filed as ADME, organism-based.
Data set [10] in a line: Corrected oral bioavailability in healthy human subjects (6 subjects) at 2.9 mg/kg by HPLC method. It is filed as ADME, organism-based. The note with it: in vivo.
A short description of data set [11]: Disposition rate constant at terminal phase in healthy human subjects (6 subjects) at 2.6 mg/kg, iv by HPLC method. It is filed as ADME, organism-based. The settings on record: in vivo.
A short description of data set [12]: Oral bioavailability in human subjects receiving phenobarbital tablets after having received phenobarbital infusion for […] withdrawal. It is filed as ADME, organism-based. The settings on record: in vivo.
Data set [13] can be described thus: Tmax in adult human. It is filed as ADME, organism-based. The settings on record: in vivo.
Data set [14] can be described thus: Cmax in healthy human subjects (6 subjects) at 2.9 mg/kg, po by HPLC method. It is filed as ADME, organism-based. The settings on record: in vivo. Also noted: dose 2.9 mg/kg, route oral.
In data set [15] the test system is Homo sapiens. As to the kind of experiment: Distribution half life in healthy human subjects (6 subjects) at 2.6 mg/kg, iv by HPLC method. It is filed as ADME, organism-based. The settings on record: in vivo.
Data set [16] is described as follows: Oral bioavailability in healthy human subjects (6 subjects) at 2.9 mg/kg by HPLC method. It is filed as ADME, organism-based. The note with it: in vivo.
Data set [17] can be described thus: Elimination half life in healthy human subjects (6 subjects) at 2.6 mg/kg, iv measured during intravenous control dose (period-1) by HPLC method. It is filed as ADME, organism-based. The settings on record: in vivo, read-out: beta t1/2 (converted).
The nature of data set [18]: Tmax in healthy human subjects (6 subjects) at 2.9 mg/kg, po by HPLC method. It is filed as ADME, organism-based. The settings on record: in vivo.
A short description of data set [19]: Elimination half life in healthy human subjects (6 subjects) measured during alkaline diuresis dose (period-2) by HPLC method. It is filed as ADME, organism-based. The note with it: in vivo, read-out: beta t1/2 (converted).
Data set [20] is described as follows: Drug dissolution in water measured during 15 mins. It is filed as physicochemical. The settings on record: buffer, 0.25 h.
A short description of data set [21]: Terminal half life in healthy human subjects (6 subjects) at 2.6 mg/kg, iv by HPLC method. It is filed as ADME, organism-based. The note with it: in vivo, read-out: beta t1/2 (converted).
Data set [22] can be described thus: Disposition rate constant at terminal phase in healthy human subjects (6 subjects) at 2.9 mg/kg, po by HPLC method. The note with it: in vivo. It is filed as ADME, organism-based.
Data set [23] can be described thus: Apparent volume of distribution in healthy human subjects (6 subjects) at 2.6 mg/kg, iv by HPLC method. The note with it: in vivo, read-out: Vd(app). It is filed as ADME, organism-based.

Molecules are shown by their SMILES.

With `CCC1(c2ccccc2)C(=O)NC(=O)NC1=O` [PHENOBARBITAL], the CL renal in [1] was 0.8 mL/h/kg. Also, the Drug dissolution in data set [2] is reported as 81.5%; in data set [4], 86%; in [8] it was 61.3%; in [20], 80%. The time of peak concentration (Tmax) – broadly, the time from dosing to the highest level – is at most 18 h in data set [3], 50 h in data set [13] and 2.3 h in data set [18]. Further, in the data set on Homo sapiens [5], the K turned out to be 3.8 h⁻¹. Moreover, the clearance (in general, a measure of how efficiently the substance is removed, as volume per time) in data set [6] was 3 mL/h/kg. Besides, the half-life in data set [7] was 122 h; in [9] it was 149 h; in data set [17], 147 h; in [19], 128 h; in data set [21], 139 h. The bioavailability (as a rule, the share of a dose that reaches the circulation, judged against a reference dose that is usually intravenous) worked out at 94.9% in [10], 100% in data set [12] and 83.4% in data set [16]. The k el in data set [11] is 1.39e-06 s⁻¹; in data set [22], 1.58e-06 s⁻¹. Further, the maximum concentration (Cmax) – broadly, the highest concentration seen after dosing – in data set [14] amounted to 5500 ng/mL. Besides, the alphat1/2 in the data set with Homo sapiens [15] amounted to 0.18 h. For the same compound, the Vd in data set [23] is 0.6 L/kg.

The values above are taken from ChEMBL document CHEMBL3785015, “Phenobarbital pharmacokinetics and bioavailability in adults” (J Clin Pharmacol, 1982).
